Values quoted from earlier work in patent US20200246414A1, “COMPOSITIONS AND METHODS FOR THE TREATMENT OF CONSTIPATION AND OTHER AILMENTS OF THE GASTROINTESTINAL SYSTEM” (K.L.R.M., LLC, priority 2019, published 2020).

System: isolated gastric cells
Conditions: suspension of isolated gastric cells

In the case of `CC(=O)N[C@H](C(=O)O)C(C)(C)SN=O` (racemic) [S-nitroso-N-acetylpenicillamine], the “mucus secretion / mucus release” value is given as “stimulated mucus secretion”.
In the case of `CCCC(=O)Nc1nc2c(ncn2C2O[C@H]3COP(=O)(O)O[C@@H]3[C@@H]2OC(=O)CCC)c(=O)[nH]1` (stereo partly shown) [Dibutyryl cyclic GMP], the “mucus secretion / mucus release” value is listed as “increased the mucus release”.
For `CCCOc1ccccc1-c1nc2[nH]nnc2c(=O)[nH]1` [M and B 22948], the “mucus secretion / mucus release” value is given as “increased the mucus release”.
For `O=[N+]([O-])O[C@H]1CO[C@H]2[C@@H]1OC[C@H]2O[N+](=O)[O-]` [isosorbide dinitrate], the “mucus secretion / mucus release” value is listed as “stimulated mucus secretion”.
